The values that follow come from PMC3698108, “Structural and bioactive studies of terpenes and cyclopeptides from the Genus Rubia” (Chemistry Central Journal, 2013).

One data set concerns A549, Hela and SMMC-7721. Also noted: method as in PMID 21973054. The conditions noted are these: data not very satisfactory; cited from earlier work.
Another data set deals with Candida albicans. Also noted: method as in PMID 21973054. The conditions noted are these: turbidimetric method; cited from earlier work.
The next data set has as its system Staphylococcus aureus. On the set-up: method as in PMID 21973054. The conditions noted are these: turbidimetric method; cited from earlier work.
The test system of another data set is HL-60 and HCT-116. On the set-up: method as in PMID 22298232. The conditions noted are these: cited from earlier work.
The test system of data set [1] is RAW 264.7 murine macrophages. As to conditions: cited from earlier work.
A further data set has as its system HUVEC and HMEC-1. On the set-up: method as in PMID 21518338. As to conditions: cited from earlier work.
For the next data set, the system named is iNOS. On the set-up: method as in PMID 12808242. The conditions noted are these: cited from earlier work.
The test system of the next data set is corneal angiogenesis. Also noted: method as in PMID 16827808. As to conditions: cited from earlier work.
Data set [2] has as its system Lewis lung carcinoma cells. On the set-up: method as in PMID 16827808. As to conditions: daily intraperitoneal injection, 1.5 or 3 mg/kg/day, cited from earlier work.
The test system of a further data set is BAEC. On the set-up: method as in PMID 16827808. As to conditions: cited from earlier work.
A further data set has as its system glyoxalase I. The conditions noted are these: cited from earlier work.
Another data set has as its system renal aldose reductase. The conditions noted are these: cited from earlier work.
Data set [3] relates to Vancomycin-Resistant Enterococci. The conditions noted are these: cited from earlier work; for antimicrobial activities: weaker than clinical antimicrobial drugs.
For another data set, the system named is four cell lines. The conditions noted are these: cited from earlier work.
For data set [4], the system named is human immunodeficiency virus (HIV-1) protease. Also noted: method as in PMID 8759159. As to conditions: cited from earlier work.
The subject of the next data set is TRAIL-induced apoptosis. As to conditions: cited from earlier work.
Another data set concerns STAT3. As to conditions: cited from earlier work.
The test system of another data set is HT-29, MCF-7 and HepG2. On the set-up: method as in PMID 18239313. The conditions noted are these: cited from earlier work.
The test system of another data set is DNA topoisomerase II. On the set-up: method as in PMID 18239313. The conditions noted are these: cited from earlier work.
Details of data set [5]: method as in PMID 20188082. The conditions noted are these: mice; cited from earlier work.
On the set-up of data set [6]: method as in PMID 17978478. The conditions noted are these: KK-A^y mice; cited from earlier work.
The subject of another data set is Protein kinase C (PKC). As to conditions: cited from earlier work.
For another data set, the system named is human colon-cancer cells. Also noted: method as in PMID 18790561, PMID 18298868. As to conditions: intrinsic mitochondrial pathway; cited from earlier work.
For a further data set, the system named is pancreatic tumor. Also noted: method as in PMID 20367887. The conditions noted are these: cited from earlier work.

SMILES strings stand for the structures.

The molecule `CC(=O)O[C@@H]1C[C@@H](C(C)C)[C@]2(CO)CC[C@@]3(C)[C@H]4C(=CC[C@]3(C)[C@@H]12)[C@@]1(C)CC[C@H](O)C(C)(C)[C@@H]1C[C@@H]4O` [Compound 22, Rubiarbonol G] came in with a melting point of 170 to 173 °C. Also, in the data set with A549, Hela and SMMC-7721, the “inhibition on A549, Hela and SMMC-7721” value is listed as “had inhibition”. The “antifungal activity against Candida albicans” value in the data set with Candida albicans is reported as “exhibited inhibition”. Moreover, the “antibacterial activity against Staphylococcus aureus” value in the data set on Staphylococcus aureus is “exhibited inhibition”.
Consider `COc1ccc(C[C@H]2C(=O)N[C@@H](C)C(=O)N(C)[C@H]3Cc4ccc(cc4)Oc4cc(ccc4O)C[C@@H](C(=O)N[C@H](C)C(=O)N[C@@H](C)C(=O)N2C)N(C)C3=O)cc1` [Compound 71, RA-V], for which the “cytotoxic activities against HL-60 and HCT-116” value with HL-60 and HCT-116 is listed as “potent cytotoxicities”. Moreover, the “activity against NO production in LPS” value in data set [1] is “exhibited activity”. For the same molecule, the “antiangiogenic activity in HUVEC and HMEC-1” value in the data set on HUVEC and HMEC-1 is “possessed the activity”. Also, in the data set on iNOS, the “effects on iNOS induction” value is “potent effects”.
Take `COc1ccc(C[C@H]2C(=O)N[C@@H](C)C(=O)N(C)[C@H]3Cc4ccc(cc4)Oc4cc(ccc4OC)C[C@@H](C(=O)N[C@H](C)C(=O)N[C@@H](C)C(=O)N2C)N(C)C3=O)cc1` [Compound 74, RA-VII]: in the data set on HL-60 and HCT-116, the “cytotoxic activities against HL-60 and HCT-116” value was “potent cytotoxicities”. In the data set on corneal angiogenesis, the mouse corneal angiogenesis entry is given as “effects on mouse corneal angiogenesis”. The “growth of Lewis lung carcinoma cells inoculated into mice” value in data set [2] was “significantly and dose dependently inhibited”. In addition, in data set [2] (mice), the “toxic effects on animals” value is listed as “no toxic effects”. Also, in the data set on BAEC, the “antiangiogenic activity on proliferation, migration, stress fiber formation of BAEC” value is on record as “antiangiogenic activity”.
For `C[C@H]1[C@H](C)CC[C@]2(C(=O)O)CC[C@]3(C)C(=CC[C@@H]4[C@@]5(C)CC[C@H](O)C(C)(C)[C@@H]5CC[C@]43C)[C@H]12` [Compound 11, Ursolic acid], the “activity of glyoxalase I” value with glyoxalase I is reported as “enhanced the activity”. Further, the “renal aldose reductase activity” value with renal aldose reductase is “markedly suppressed”. Besides, in data set [3], the toxicity result is listed as “low toxicity” and the antimicrobial activities entry is reported as “fairly high antimicrobial activities”. Besides, in the data set with four cell lines, the apoptotic effects entry is given as “markedly apoptotic effects”; the cell adhesion entry was “suppress cell adhesion”; the “production of VEGF and ICAM-1” value was “reduce the production of VEGF and ICAM-1”. Moreover, the “inhibition on HIV-1 protease” value in data set [4] is “possess inhibition”. Moreover, the TRAIL-induced apoptosis entry in the data set with TRAIL-induced apoptosis is “potentiated TRAIL-induced apoptosis”. Also, in the data set with STAT3, the STAT3 activation result is “novel blocker of STAT3 activation”.
As for `CC1(C)CC[C@]2(C(=O)O)CC[C@]3(C)C(=CC[C@@H]4[C@@]5(C)CC[C@H](O)C(C)(C)[C@@H]5CC[C@]43C)[C@@H]2C1` [Compound 12, Oleanolic acid], the “activity of glyoxalase I” value in the data set on glyoxalase I is “enhanced the activity”. The “renal aldose reductase activity” value in the data set with renal aldose reductase is given as “markedly suppressed”. The “cytotoxicity against HT-29, MCF-7 and HepG2” value in the data set with HT-29, MCF-7 and HepG2 was “weak cytotoxicity”. Besides, in [3], the toxicity result was “low toxicity” and the antimicrobial activities entry is listed as “fairly high antimicrobial activities”. Moreover, in the data set on four cell lines, the apoptotic effects result is recorded as “markedly apoptotic effects”; the cell adhesion entry is “suppress cell adhesion”; the “production of VEGF and ICAM-1” value was “reduce the production of VEGF and ICAM-1”. In addition, the “inhibitory activity against DNA topoisomerase II compared with DNA topoisomerase I” value in the data set on DNA topoisomerase II is “selective inhibitory activity”. Further, in data set [5], the glucose tolerance result is “improve glucose tolerance” and the visceral adiposity result was “ameliorate visceral adiposity”.
For `CC1(C)CC[C@]2(C(=O)O)CC[C@]3(C)C(=CC[C@@H]4[C@@]5(C)C[C@@H](O)[C@H](O)C(C)(C)[C@@H]5CC[C@]43C)[C@@H]2C1` [Compound 9, Maslinic acid], the “glucose-lowering and hypoinsulinemic effects” value in data set [6] was “significant glucose-lowering and hypoinsulinemic effects”. Also, in the data set on Protein kinase C (PKC), the PKC inhibition result is recorded as “acted as a PKC inhibitor”. Also, the “inhibition on HIV-1 protease” value in data set [4] is given as “possess inhibition”. Also, the caspase-dependent apoptosis entry in the data set with human colon-cancer cells is “induce caspase-dependent apoptosis”. Also, in the data set on pancreatic tumor, the “effect on anti-tumor activities of TNF-α” value is reported as “potentiate anti-tumor activities of TNF-α”; the “pancreatic tumor growth and invasion” value is “inhibit pancreatic tumor growth and invasion”.

The term melting point denotes the temperature, or range, at which the solid turns liquid.
